Literature values, collected in US20240082165A1, “METHODS AND COMPOSITIONS FOR PRECISION RELEASE OF PROBIOTICS TO IMPROVE HUMAN HEALTH” (SEED HEALTH INC., priority 2021, published 2024).

Experiments:
[1] = delivered directly in the colon, overweight individuals
[2] = synthesized ligand, mice

| Compound | energy intake, adiposity, liver lipid, plasma PYY and GLP-1 [1] | protection from colitis [2] |
| --- | --- | --- |
| CCC(=O)O [propionate] | reduced energy intake, adiposity, and lipid liver content, and increased plasma levels of peptide YY (PYY) and glucagon-like peptide 1 (GLP-1) |  |
| M-tri-Lys |  | protected mice from colitis in a NOD2-dependent but MyD88-independent manner |
